{"source": "patent US20100160391A1", "about": "“Substituted Aminopyridines as Fluorescent Reporters for Amide Hydrolases” (priority 2006, published 2010)", "key": {"[1]": {"experiment": "Dependence of relative fluorescent intensity on pH values", "type": "physicochemical", "conditions": "25 μM, pH 8, excitation 302 nm", "procedure": "The dependence of relative fluorescent intensity on pH values. 5-amino-2-methoxypyridine (6) was used to determine whether protonization/de-protonization affects the relative fluorescent intensities of the reporters. A stock solution of (6) in ethanol (5 μl, 5 mM) was added to 995 μl 0.1 M sodium phosphate buffer (from pH 6.0 to pH 8.0) or 0.1 M Tris/HCl buffer (pH 9.0) in a quartz cuvette (final substrate concentration 25 μM). Relative fluorescent unit/intensity (RFU) for emission spectra was recorded by a 2 nm interval at room temperature using a fixed excitation wavelength (λ=302 nm). The RFU of each pH value was an average of triplicates and the standard deviation for each point was less than 1%. Similarly, the RFU of the excitation spectrum was recorded by a 2 nm interval at room temperature using a fixed emission wavelength (λ=396 nm) in 0.1 M phosphate buffer (pH 8.0)."}, "[2]": {"tested_on": "amidases, microsomes from High Five cells", "experiment": "Specific activity, microsomes from High Five cells", "conditions": "pH 8.0, 37° C.; NM = not measurable at the same protein concentration as other substrates", "description": "Preparation of recombinant human FAAH. Transgenic expression of the human FAAH in a baculovirus system was performed by following the method described in Nishi et al., Arch. […] The cDNA encoding human FAAH (GenBank Accession No. NM—001441) was amplified by PCR using a human liver cDNA library (Invitrogen; Carlsbad, Calif.) as a template. The primer pair was 5′-[sequence]-3′ and 5′-[sequence]-3′. BglII and EcoRI endonuclease sites (underlined) were incorporated just upstream of the start codon and downstream of the stop codon of the coding sequence of FAAH, respectively. The PCR products were cloned into a pCR2.1 vector (Invitrogen) and the nucleotide sequence was verified by DNA sequencing. The cDNA fragments were then excised and directionally ligated to the BglII and EcoRI sites of the baculovirus transfer vector pAcUW21 (Lopez-Ferber et al., Baculovirus transfer vectors, in “Baculovirus Expression Protocols,” Richardson (Ed.), pp 25-63, Humana Press, Totowa, N.J., 1995). Recombinant baculoviruses harboring the human FAAH gene, Ac-hFAAH, were generated by co-transfection of Spodoptera frugiperda-derived Sf21 cells with the recombinant transfer vector plasmid and Bsu36I-cleaved BacPAK6 viral DNA (Clontech Laboratories; Mountain View, Calif.) as described in O'Reilly et al., Baculovirus Expression Vectors: A Laboratory Manual, Oxford University Press, New York, 1992. Trichoplusia ni-derived High Five cells (1×10^6 cells/ml) were inoculated with a high titer of Ac-hFAAH. At 72 hours post-infection, the infected cells were harvested by centrifugation at 2,000×g for 20 min at 4° C. and suspended in 50 mM Tris-HCl (pH 8.0) containing 150 mM NaCl, 1 mM EDTA, 1 μM pepstatin, 100 μM leupeptin, and 0.1 mg/ml aprotinin. The cell suspension was then homogenized using a Polytron homogenizer and centrifuged at 10,000×g for 20 min at 4° C. […]\nComparison of the lowest detection limits of protein concentration of FAAH toward colorimetric and fluorescent substrates. […] The lowest detection limits of microsomal fatty acid amide hydrolase (FAAH) by substrates were determined by the fact that the signal at 10 min after kinetic measurements are equal to or over three times the noise or basal line at 0 min. Colorimetric substrate (16) assays were performed in clear 96-well microtititer plates using an absorbance wavelength at 382 nm. The fluorescent substrates containing 5-amino-2-methoxypyridine (e.g., 10, 13) were measured at an excitation wavelength (302 nm), emission wavelength (396 nm), and auto cutoff wavelength (325 nm). Similarly, the fluorescent substrates containing 5-amino-2-methoxy-6-methylpyridine (e.g., 11, 14, and 17) were measured at an excitation wavelength (304 nm), emission wavelength (392 nm), and an auto cutoff wavelength of 325 nm. […]"}, "[3]": {"molecular_target": "T1, microsomal fatty acid amide hydrolase (FAAH) (Homo sapiens, UniProt O00519)", "T1 construct": "made in house; host or cells: Trichoplusia ni High Five cells infected with recombinant baculovirus Ac-hFAAH; microsomal fraction", "T1 sequence (O00519 1-579)": "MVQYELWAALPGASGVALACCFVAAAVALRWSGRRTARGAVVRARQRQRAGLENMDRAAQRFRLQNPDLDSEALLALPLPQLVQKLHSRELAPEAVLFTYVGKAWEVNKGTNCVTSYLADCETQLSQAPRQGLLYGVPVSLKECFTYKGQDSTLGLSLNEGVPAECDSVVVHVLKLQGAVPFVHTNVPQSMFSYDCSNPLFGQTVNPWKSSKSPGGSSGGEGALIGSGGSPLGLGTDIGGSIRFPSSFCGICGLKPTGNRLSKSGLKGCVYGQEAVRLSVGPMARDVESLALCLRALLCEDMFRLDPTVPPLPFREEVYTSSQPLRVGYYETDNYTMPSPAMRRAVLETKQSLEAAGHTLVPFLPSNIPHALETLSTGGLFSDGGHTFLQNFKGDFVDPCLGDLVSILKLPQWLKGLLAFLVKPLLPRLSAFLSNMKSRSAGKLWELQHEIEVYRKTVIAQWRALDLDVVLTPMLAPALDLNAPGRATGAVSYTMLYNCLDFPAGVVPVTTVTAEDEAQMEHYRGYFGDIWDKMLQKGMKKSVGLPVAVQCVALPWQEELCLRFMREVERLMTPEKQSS", "experiment": "Lowest detection limits of microsomal FAAH toward colorimetric and fluorescent substrates", "type": "biochemical", "procedure": "Preparation of recombinant human FAAH. Transgenic expression of the human FAAH in a baculovirus system was performed by following the method described in Nishi et al., Arch. Biochem. Biophys., 445:115-123 (2006). The cDNA encoding human FAAH (GenBank Accession No. NM_001441) was amplified by PCR using a human liver cDNA library (Invitrogen; Carlsbad, Calif.) as a template. The primer pair was 5′-[…]-3′ and 5′-[…]-3′. BglII and EcoRI endonuclease sites (underlined) were incorporated just upstream of the start codon and downstream of the stop codon of the coding sequence of FAAH, respectively. The PCR products were cloned into a pCR2.1 vector (Invitrogen) and the nucleotide sequence was verified by DNA sequencing. The cDNA fragments were then excised and directionally ligated to the BglII and EcoRI sites of the baculovirus transfer vector pAcUW21 (Lopez-Ferber et al., Baculovirus transfer vectors, in “Baculovirus Expression Protocols,” Richardson (Ed.), pp 25-63, Humana Press, Totowa, N.J., 1995). Recombinant baculoviruses harboring the human FAAH gene, Ac-hFAAH, were generated by co-transfection of Spodoptera frugiperda-derived Sf21 cells with the recombinant transfer vector plasmid and Bsu36I-cleaved BacPAK6 viral DNA (Clontech Laboratories; Mountain View, Calif.) as described in O'Reilly et al., Baculovirus Expression Vectors: A Laboratory Manual, Oxford University Press, New York, 1992. Trichoplusia ni-derived High Five cells (1×10^6 cells/ml) were inoculated with a high titer of Ac-hFAAH. At 72 hours post-infection, the infected cells were harvested by centrifugation at 2,000×g for 20 min at 4° C. and suspended in 50 mM Tris-HCl (pH 8.0) containing 150 mM NaCl, 1 mM EDTA, 1 μM pepstatin, 100 μM leupeptin, and 0.1 mg/ml aprotinin. The cell suspension was then homogenized using a Polytron homogenizer and centrifuged at 10,000×g for 20 min at 4° C. The microsomal fraction was collected by ultracentrifugation of the supernatant at 100,000×g for 60 min at 4° C. The pellet was resuspended in 20 mM Tris-HCl (pH 8.0) containing 10% (w/v) glycerol and 1% (w/v) Triton-X 100 and stored at −80° C. until use.\nComparison of the lowest detection limits of protein concentration of FAAH toward colorimetric and fluorescent substrates. In general, all assays were performed in 96-well styrene flat-bottom microtiter plates with a Spectra Max M2 spectrophotometer at 37° C. for […]. The total volume of each well was 201 μl consisting of 0.1 M sodium phosphate buffer (pH 8.0) (190 μl) containing 1% glycerol and 0.1% Triton-X 100, stock or diluted protein solution (10 μl), and the substrate solution (1 μl) in ethanol (final concentration 200 μM for 10, 11, 13 or 14) or in DMSO (final concentration 25 μM for 12, 15, or 16; 50 μM for 17). The lowest detection limits of microsomal fatty acid amide hydrolase (FAAH) by substrates were determined by the fact that the signal at 10 min after kinetic measurements are equal to or over three times the noise or basal line at 0 min. Colorimetric substrate (16) assays were performed in clear 96-well microtititer plates using an absorbance wavelength at 382 nm. The fluorescent substrates containing 5-amino-2-methoxypyridine (e.g., 10, 13) were measured at an excitation wavelength (302 nm), emission wavelength (396 nm), and auto cutoff wavelength (325 nm). Similarly, the fluorescent substrates containing 5-amino-2-methoxy-6-methylpyridine (e.g., 11, 14, and 17) were measured at an excitation wavelength (304 nm), emission wavelength (392 nm), and an auto cutoff wavelength of 325 nm. In addition, an excitation wavelength (366 nm), emission wavelength (496 nm), and auto cutoff wavelength (495 nm) were used for the substrates (e.g., 12 and 15) containing 7-amino-4-trifluoromethyl coumarin."}}, "note": "Marks after values point to notes of the source that are not given here."}
{"smiles": "CCCCCCCC(=O)Nc1ccc(OC)nc1", "note": "[Compound 13, N-(6-methoxypyridin-3-yl) octanamide]", "values": [{"measurement": "relative fluorescent intensity of substrate emission at the maximal excitation wavelength of (6)", "setting": "[1]", "value": "less than 200 RFU"}, {"measurement": "Specific activity, Microsomes from High Five cells", "setting": "[2]", "value": "793 ± 38.9", "unit": "pmol/min/mg protein"}, {"measurement": "base line, Average", "setting": "[3]; 0 min, protein 0.11 (13), 0.67 (14), 100 (15), 0.5 (17) μg/well, 200 μM (13),(14), 25 μM (15), 50 μM (17)", "value": 302, "unit": "RFU"}, {"measurement": "signal, Average", "setting": "[3]; 10 min, protein 0.11 (13), 0.67 (14), 100 (15), 0.5 (17) μg/well, 200 μM (13),(14), 25 μM (15), 50 μM (17)", "value": "1091* RFU"}, {"measurement": "difference between (13) and (17) in limit of protein detection", "setting": "[3]; Table 2", "value": 5, "unit": "times"}, {"measurement": "Protein, lowest detection limit of microsomal FAAH (signal at 10 min ≥ three times base line)", "setting": "[3]; pH 8.0, 37° C., 200 μM (13), (14), 50 μM (17)", "value": 0.11, "unit": "μg/200 μ′"}, {"measurement": "lowest detection limit of protein", "setting": "[3]; signal at 10 min equal to three times base line", "value": 0.55, "unit": "μg protein/ml"}]}
